Assay results reported in patent US12383624B2, “Cargo delivery system and composition comprising the same” (SEOUL NATIONAL UNIVERSITY R&DB FOUNDATION, priority 2018, dated 2025).

Key:
Cyclin D1 = test: target protein degradation by immunoblotting (Experimental Example 6); assay type: cell-based, human; settings: A549 cell line, 24 hours
Description: (§1) In order to evaluate the target proteion degradation efficacy by Examples 14 to 33 according the disclosure, the following experiment was conducted.
(§2) First, as cell lines primarily expressing the target protein, Human kidney-derived cancer cells, HEK293T (ATCC, CRL-3216), human prostate-derived cancer cells, LNcap (Korean Cell Line Bank, Korean Cell Line Research Foundation, KCLB No. 80018), mouse embryonic fibroblast, MEF (ATCC, SCRC-1008), human cervical cancer cells, HeLa (Korean Cell Line Bank, Korean Cell Line Research Foundation, KCLB No. 10002), human blood-derived cells, K562 (Korean Cell Line Bank, Korean Cell Line Research Foundation, KCLB No. 10243), human blood-derived cells, THP-1 (Korean Cell Line Bank, Korean Cell Line Research Foundation, KCLB No. 40202), human lung-derived cancer cells, A549 (Korean Cell Line Bank, Korean Cell Line Research Foundation, KCLB No. 10185), human breast-derived cancer cells, MCF7 (Korean Cell Line Bank, Korean Cell Line Research Foundation, KCLB No. 30022), human neuroblastoma, SH-SY5Y cell lines (Korean Cell Line Bank, Korean Cell Line Research Foundation, KCLB No. 22266), human pancreatic cancer cells, PANC-1 (Korean Cell Line Bank, Korean Cell Line Research Foundation, KCLB No. 21469) were cultured, respectively, in an incubator maintained at 5% carbon dioxide, using DMEM containing 10% FBS and 1% streptomycin/penicillin, RPMI1640, or MEM medium, and then the respective cells were dispensed in 12-well plate. Additional incubation was performed for 24 hours to ensure that each cell completely fixed to the surface of the plate.
(§3) In order to confirm whether Compounds A to W of Examples 14 to 33 degrade the target protein respectively, the cultured cells were treated with the compound of each example for 24 hours and then collected.
(§4) In this case, HEK293T, which is human kidney-derived cancer cells, LNcap, which is human prostate-derived cancer cells, and MEF cell line, which is mouse embryonic fibroblasts, were treated with Example 14 (Compound A). HEK293T, which is human kidney-derived cancer cells, was treated with Example 15 (Compound B). HEK293T cell line, which is human kidney-derived cancer cells, and HeLa cell line, which is cervical-derived cancer cells, were treated with Example 16 (Compound C). HEK293T cell line, which is human kidney-derived cancer cells, was treated with Example 17 (Compound D). K562 cell line, which is human blood-derived cells, was treated with Example 18 (Compound E). HEK293T cell line, which is human kidney-derived cancer cells, was treated with Example 19 (Compound F). THP-1 cell line, which is human blood-derived cells, was treated with Example 20 (Compound G). A549 cell line, which is human lung-derived cancer cells, was treated with Example 21 (Compound H). A549 cell line, which is human lung-derived cancer cells, was treated with Example 22 (Compound I). MCF7 cell line, which is human breast-derived cancer cells, was treated with Example 23 (Compound J). HEK293T cell line, which is […], was treated with Example 24 (Compound L). SH-SY5Y, which is human neuroblastoma, and HeLa cell line, which is cervical-derived cancer cells, were treated with Example 25 (Compound M). THP-1 cell line, which is human blood-derived cells, was treated with Example 26 (Compound P). SH-SY5Y, which is human neuroblastoma, and HeLa cell line, which is cervical-derived cancer cells, were treated with Example 27 (Compound Q). SH-SY5Y, which is human neuroblastoma, and HeLa cell line, which is cervical-derived cancer cells, were treated with Example 28 (Compound R). HeLa cell line, a human cervical-derived cancer cell, was treated with Example 29 (Compound S). SH-SY5Y cell line, which is human neuroblastoma, was treated with Example 30 (Compound T). SH-SY5Y cell line, which is human neuroblastoma, was treated with Example 31 (Compound U). PANC-1 cell line, which is human pancreatic-derived cancer cells, was treated with Example 32 (Compound V). […]

STAT3 = biological target: T1, STAT3 (Homo sapiens, UniProt P40763); test: as above; assay type: cell-based; settings: A549 cell line, 24 hours
T1 construct: as cell lines primarily expressing the target protein; endogenous in cells; host or cells: A549
T1 sequence (P40763 whole entry): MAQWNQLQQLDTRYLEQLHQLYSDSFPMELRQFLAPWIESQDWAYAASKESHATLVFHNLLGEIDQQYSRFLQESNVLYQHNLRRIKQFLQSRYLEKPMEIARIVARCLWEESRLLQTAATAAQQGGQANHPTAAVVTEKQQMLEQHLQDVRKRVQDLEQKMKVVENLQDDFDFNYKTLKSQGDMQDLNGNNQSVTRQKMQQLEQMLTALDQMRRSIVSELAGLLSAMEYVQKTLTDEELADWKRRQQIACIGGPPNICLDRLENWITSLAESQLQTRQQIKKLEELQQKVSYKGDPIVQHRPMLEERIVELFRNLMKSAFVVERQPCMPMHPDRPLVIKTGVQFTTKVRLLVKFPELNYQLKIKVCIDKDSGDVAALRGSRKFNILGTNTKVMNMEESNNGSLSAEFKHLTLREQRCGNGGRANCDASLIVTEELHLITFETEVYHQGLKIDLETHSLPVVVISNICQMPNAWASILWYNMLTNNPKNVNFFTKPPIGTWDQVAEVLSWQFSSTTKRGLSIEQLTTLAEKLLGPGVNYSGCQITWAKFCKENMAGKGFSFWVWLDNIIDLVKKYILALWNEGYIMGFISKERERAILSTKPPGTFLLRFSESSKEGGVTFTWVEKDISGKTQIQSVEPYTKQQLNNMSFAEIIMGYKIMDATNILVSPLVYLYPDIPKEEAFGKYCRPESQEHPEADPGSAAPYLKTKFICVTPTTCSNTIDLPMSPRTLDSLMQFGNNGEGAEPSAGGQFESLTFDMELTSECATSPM
Description: as §1, §2, §3, §4

p-STAT3 = biological target: T2, p-STAT3 (Homo sapiens, UniProt P40763); test: as above; assay type: cell-based; settings: A549 cell line, 24 hours
T2 construct: endogenous in cells; host or cells: A549
T2 sequence (P40763 whole entry): as above
Description: as §1, §2, §3, §4

Tau = test: as above; assay type: cell-based, human; settings: 24 hours
Description: as §1, §2, §3, §4

α-synuclein(A53T) = biological target: T3, α-synuclein(A53T) (Homo sapiens, UniProt P37840, A53T); test: as above; assay type: cell-based; settings: 24 hours
T3 construct: expressed in transfected cells; host or cells: SH-SY5Y (Compound U); SH-SY5Y or HeLa (Compound M)
Description: as §1, §2, §3, §4

Desmin Mut(L385P) = biological target: T4, Desmin Mut(L385P) (Homo sapiens, UniProt P17661, L385P); test: as above; assay type: cell-based; settings: 24 hours
T4 construct: expressed in transfected cells; host or cells: HeLa (Compound S); SH-SY5Y or HeLa (Compounds M, Q, R)
T4 sequence (P17661 whole entry L385P): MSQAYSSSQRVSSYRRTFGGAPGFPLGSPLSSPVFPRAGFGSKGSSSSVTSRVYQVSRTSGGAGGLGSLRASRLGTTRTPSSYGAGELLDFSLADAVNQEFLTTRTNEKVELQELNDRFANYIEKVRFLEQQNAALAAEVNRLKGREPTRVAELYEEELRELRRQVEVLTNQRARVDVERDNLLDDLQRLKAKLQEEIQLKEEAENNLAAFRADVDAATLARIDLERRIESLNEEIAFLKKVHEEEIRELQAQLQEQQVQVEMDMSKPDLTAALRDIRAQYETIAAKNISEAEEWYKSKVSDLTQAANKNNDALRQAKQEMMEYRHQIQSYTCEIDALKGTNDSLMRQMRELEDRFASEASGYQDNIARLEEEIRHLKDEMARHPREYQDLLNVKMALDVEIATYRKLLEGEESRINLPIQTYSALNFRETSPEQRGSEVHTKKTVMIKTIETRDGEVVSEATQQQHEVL
Description: as §1, §2, §3, §4

p62 protein = biological target: T5, p62 protein (Homo sapiens, UniProt Q13501); test: oligomerization activity of p62 protein in cultured cells by immunoblotting; assay type: cell-based; design: dose or concentration left out as unconfirmed; settings: HEK293 cell line, 2 hr, unlike DMSO control
T5 construct: endogenous in cells; host or cells: HEK293
T5 sequence (Q13501 whole entry): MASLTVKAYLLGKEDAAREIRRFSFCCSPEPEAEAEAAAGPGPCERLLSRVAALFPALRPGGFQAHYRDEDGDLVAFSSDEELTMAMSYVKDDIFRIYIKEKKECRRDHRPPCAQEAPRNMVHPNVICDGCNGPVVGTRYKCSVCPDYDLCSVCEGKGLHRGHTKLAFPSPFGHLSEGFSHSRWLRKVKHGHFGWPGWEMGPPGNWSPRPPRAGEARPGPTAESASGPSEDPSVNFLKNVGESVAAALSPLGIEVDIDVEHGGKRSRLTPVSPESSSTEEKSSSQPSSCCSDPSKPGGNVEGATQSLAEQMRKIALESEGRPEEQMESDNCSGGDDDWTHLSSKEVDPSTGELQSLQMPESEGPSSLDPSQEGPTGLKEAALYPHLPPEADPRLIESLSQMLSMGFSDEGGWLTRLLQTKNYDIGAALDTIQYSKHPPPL
Description: In order to evaluate the oligomerization activity efficacy of p62 protein according to examples of the disclosure, HEK293 cell line, which is human embryonic kidney-derived cell, was collected. The cell lines were treated with Example 3 (PBA 1104), Example 4 (PBA 1105), Example 5 (Anle F105), Example 8 (PHTPP 1304), Example 11 (BTA-1 1104), Example 12 (Curcumin 1204), Example 1 (ATC 1105), Example 2 (ATC 1104), Example 10 (Resv 1105), Example 13 (Rilu 204) according to the examples, YTK-1105 compound, which is an autophagy targeting ligand compound as a comparative example, and DMSO as a control […], 2 hr, respectively.
In order to measure intracellular p62 protein activation and oligomerization in cells according to the treatment with these compounds, the respective cells were dispensed into a 100 pi dish. The cells were collected after further culturing for 24 hours so that the cells were completely attached to the surface of the plate. 100 μl of lysis buffer (20 mM Tris (pH 7.4), 150 mM NaCl, 1% Triton X-100, 2 mM NaF, 2 mM EDTA, 2 mM beta-glycerophosphate, 5 mM sodium orthovanadate, 1 mM PMSF, leupeptin, aproteinin) were injected into each sample and the cells were lysed. Based on the measured total protein concentration, each sample was treated with test compounds at room temperature for 2 hours, and then a sample buffer was added and allowed to react at 95° C. for 10 minutes. […]

RIPK2 = biological target: T6, RIPK2 (Homo sapiens, UniProt O43353); test: target protein degradation by immunoblotting (Experimental Example 6); assay type: cell-based; settings: THP-1 cell line, 24 hours
T6 construct: as cell lines primarily expressing the target protein; endogenous in cells; host or cells: THP-1
T6 sequence (O43353 whole entry): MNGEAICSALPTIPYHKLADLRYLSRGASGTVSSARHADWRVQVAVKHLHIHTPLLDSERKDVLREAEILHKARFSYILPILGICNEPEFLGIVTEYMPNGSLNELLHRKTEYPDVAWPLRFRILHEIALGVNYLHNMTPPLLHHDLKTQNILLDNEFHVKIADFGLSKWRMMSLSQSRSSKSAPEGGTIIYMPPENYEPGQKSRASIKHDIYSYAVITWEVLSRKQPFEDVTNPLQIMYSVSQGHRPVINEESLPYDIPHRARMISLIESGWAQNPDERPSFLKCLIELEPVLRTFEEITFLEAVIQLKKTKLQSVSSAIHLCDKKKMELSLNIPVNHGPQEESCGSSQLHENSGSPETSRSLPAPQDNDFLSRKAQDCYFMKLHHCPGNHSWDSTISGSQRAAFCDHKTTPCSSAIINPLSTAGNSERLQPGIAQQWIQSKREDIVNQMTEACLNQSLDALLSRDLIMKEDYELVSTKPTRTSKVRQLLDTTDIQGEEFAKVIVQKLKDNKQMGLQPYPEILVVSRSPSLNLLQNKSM
Description: as §1, §2, §3, §4

[1] = SH-SY5Y and HeLa cell lines treated

Compound: NC(=O)CC[C@H](NC(=O)[C@@H]1CC[C@@H]2CCN(C(=O)CCCOCCOCCOCCOCCNCc3ccc(OCc4ccccc4)c(OCc4ccccc4)c3)C[C@H](NC(=O)c3cc4cc(C(F)(F)P(=O)(O)O)ccc4[nH]3)C(=O)N21)C(=O)NC(c1ccccc1)c1ccccc1 [Example 22, ((2-(((5S,8S,10aR)-8-(((S)-5-amino-1-(benzhydrylamino)-1,5-dioxopentan-2-yl)carbamoyl)-3-(1-(3,4-bis(benzyloxy)phenyl)-5,8,11,14-tetraoxa-2-azaoctadecan-18-oyl)-6-oxodecahydropyrrolo[1,2-a][1,5]diazocin-5-yl)carbamoyl)-1H-indol-5-yl)difluoromethyl)phosphonic acid]
- degradation of target protein Cyclin D1 (decrease in level vs Control) (Cyclin D1): can be degraded
- degradation of target protein STAT3 (decrease in level vs Control) (STAT3): can be degraded
- degradation of target protein p-STAT3 (decrease in level vs Control) (p-STAT3): can be degraded

Compound: O=C(c1cc(-c2cc3c(cc2C(=O)N2Cc4ccccc4C[C@H]2CN2CCN(CCOCCOCCOCCOCCNCc4ccc(OCc5ccccc5)c(OCCc5ccccc5)c4)CC2)OCO3)n2c1CCCC2)N(c1ccccc1)c1ccc(O)cc1 [Example 25, (S)-3-(6-(3-((4-(1-(4-(benzyloxy)-3-phenethoxyphenyl)-5,8,11,14-tetraoxa-2-azahexadecan-16-yl)piperazin-1-yl)methyl)-1,2,3,4-tetrahydroisoquinoline-2-carbonyl)benzo[d][1,3]dioxol-5-yl)-N-(4-hydroxyphenyl)-N-phenyl-5,6,7,8-tetrahydroindolizine-1-carboxamide]
- degradation of target protein Tau (decrease in level vs Control) (Tau; [1]): can be degraded
- degradation of target protein α-synuclein(A53T) (decrease in level vs Control) (α-synuclein(A53T); [1]): can be degraded
- degradation of target protein Desmin Mut(L385P) (decrease in level vs Control) (Desmin Mut(L385P); [1]): can be degraded

Compound: OCCNCc1ccc(OCc2ccccc2)c(OCc2ccccc2)c1 [YTK-1105]
- monomer of p62 proteins (p62 protein): decrease
- p62 oligomers and high-molecular aggregates (p62 protein): increase

Compound: CC(C)(C)S(=O)(=O)c1cc2c(Nc3ccc4scnc4c3)ncnc2cc1OCCNCCOCCOCCOCCOCCOCCNC[C@@H](O)COc1ccc(OCc2ccc(F)cc2)c(OCc2ccc(F)cc2)c1 [Example 26, (R)-1-((4-(benzo[d]thiazol-5-ylamino)-6-(tert-butylsulfonyl)quinazolin-7-yl)oxy)-24-(3,4-bis((4-fluorobenzyl)oxy)phenoxy)-6,9,12,15,18-pentaoxa-3,21-diazatetracosan-23-ol]
- degradation of target protein RIPK2 (decrease in level vs Control) (RIPK2): can be degraded

Compound: O=C(CCCc1ccccc1)NCCOCCOCCOCCOCCOCCNCc1ccc(OCc2ccccc2)c(OCc2ccccc2)c1 [Example 27, N-(1-(3,4-bis(benzyloxy)phenyl)-5,8,11,14,17-pentaoxa-2-azanonadecan-19-yl)-4-phenylbutanamide]
- degradation of target protein Tau (decrease in level vs Control) (Tau; [1]): can be degraded
- degradation of target protein Desmin Mut(L385P) (decrease in level vs Control) (Desmin Mut(L385P); [1]): can be degraded

Compound: CC(C)(C)S(=O)(=O)c1cc2c(Nc3ccc4scnc4c3)ncnc2cc1OCCNCCOCCOCCNCc1cccc(OCc2ccccc2)c1 [Example 20, N-(7-((1-(3-(benzyloxy)phenyl)-5,8-dioxa-2,11-diazatridecan-13-yl)oxy)-6-(tert-butylsulfonyl)quinazolin-4-yl)benzo[d]thiazol-5-amine]
- degradation of target protein RIPK2 (decrease in level vs Control) (RIPK2): can be degraded

Compound: NC(=O)CC[C@H](NC(=O)[C@@H]1CC[C@@H]2CCN(C(=O)CCCOCCOCCOCCOCCNC[C@@H](O)COc3ccc(OCc4ccc(F)cc4)c(OCc4ccc(F)cc4)c3)C[C@H](NC(=O)c3cc4cc(C(F)(F)P(=O)(O)O)ccc4[nH]3)C(=O)N21)C(=O)NC(c1ccccc1)c1ccccc1 [Example 21, ((2-(((5S,8S,10aR)-8-(((S)-5-amino-1-(benzhydrylamino)-1,5-dioxopentan-2-yl)carbamoyl)-3-((R)-1-(3,4-bis((4-fluorobenzyl)oxy)phenoxy)-2-hydroxy-7,10,13,16-tetraoxa-4-azaicosan-20-oyl)-6-oxodecahydropyrrolo[1,2-a][1,5]diazocin-5-yl)carbamoyl)-1H-indol-5-yl)difluoromethyl)phosphonic acid]
- degradation of target protein Cyclin D1 (decrease in level vs Control) (Cyclin D1): can be degraded
- degradation of target protein STAT3 (decrease in level vs Control) (STAT3): can be degraded
- degradation of target protein p-STAT3 (decrease in level vs Control) (p-STAT3): can be degraded

Compound: O=C(CCCc1ccccc1)NCCOCCOCCOCCNC[C@@H](O)COc1ccc(OCc2ccc(F)cc2)c(OCc2ccc(F)cc2)c1 [Example 29, (R)—N-(15-(3,4-bis((4-fluorobenzyl)oxy)phenoxy)-14-hydroxy-3,6,9-trioxa-12-azapentadecyl)-4-phenylbutanamide]
- degradation of target protein Desmin Mut(L385P) (decrease in level vs Control) (Desmin Mut(L385P); HeLa cell line): can be degraded

Compound: O=C(CCCc1ccccc1)NCCOCCOCCOCCOCCOCCOCCOCCNCc1ccc(OCc2ccccc2)c(OCc2ccccc2)c1 [Example 28, N-(1-(3,4-bis(benzyloxy)phenyl)-5,8,11,14,17,20,23-heptaoxa-2-azapentacosan-25-yl)-4-phenylbutanamide]
- degradation of target protein Tau (decrease in level vs Control) (Tau; [1]): can be degraded
- degradation of target protein Desmin Mut(L385P) (decrease in level vs Control) (Desmin Mut(L385P); [1]): can be degraded

Compound: CN(CCOCCOCCOCCNCc1ccc(OCc2ccccc2)c(OCc2ccccc2)c1)c1ccc2nc3ccc(=[N+](C)C)cc-3sc2c1 [Example 31, N-(7-((1-(3,4-bis(benzyloxy)phenyl)-5,8,11-trioxa-2-azatridecan-13-yl) (methyl)amino)-3H-phenothiazin-3-ylidene)-N-methylmethanaminium 2,2,2-trifluoroacetate]
- degradation of target protein Tau (decrease in level vs Control) (Tau; SH-SY5Y cell line): can be degraded
- degradation of target protein α-syn. Mut(A53T) (decrease in level vs Control) (α-synuclein(A53T); SH-SY5Y cell line): can be degraded
